Consider ten compounds from ChEMBL document CHEMBL4346762, “Design, synthesis and anticancer activity of constrained sphingolipid-phenoxazine/phenothiazine hybrid constructs targeting protein phosphatase 2A” (Bioorg Med Chem Lett, 2019).

Each structure is given as a SMILES string.

Experiment [1] concerns FL5.12. Kind of experiment: Induction of vacuolation in mouse FL5.12 cells assessed as vacuolation score at 2.5 uM preincubated with PP2A inhibitor calyculin A for 60 mins followed by compound addition and measured after 2 hrs by fluorescence microscopic method. The format is functional.
The next experiment is filed under the species Mus musculus. In words: Ratio of IC50 for SH-BC-893 to IC50 for test compound for inhibition of protein phosphatase 2A in mouse FL5.12 cells assessed as reduction in cell viability incubated for 48 hrs by propidium iodide staining based flow cytometric analysis.
The test system of experiment [2] is FL5.12. Kind of experiment: Inhibition of protein phosphatase 2A in mouse FL5.12 cells assessed as induction of surface nutrient transporter loss by measuring downregulation of CD98 expression level at 10 uM preincubated with PP2A inhibitor calyculin A for 60 mins followed by compound addition and measured after 2 hrs by flow cytometric analysis relative to control. Set-up: scale not given: the % may be the effect or the level left. The format is cell-based.

A short description of experiment [3]: Inhibition of protein phosphatase 2A in mouse FL5.12 cells assessed as reduction in cell viability incubated for 48 hrs by propidium iodide staining based flow cytometric analysis. To be noted: FL5.12, 48 h.
In experiment [4] the test system is FL5.12. Kind of experiment: Induction of vacuolation in mouse FL5.12 cells assessed as vacuolation score at 10 uM preincubated with PP2A inhibitor calyculin A for 60 mins followed by compound addition and measured after 2 hrs by fluorescence microscopic method. In kind it is functional.
For experiment [5], the system named is FL5.12. Kind of experiment: Inhibition of protein phosphatase 2A in mouse FL5.12 cells assessed as induction of surface nutrient transporter loss by measuring downregulation of CD98 expression level at 2.5 uM preincubated with PP2A inhibitor calyculin A for 60 mins followed by compound addition and measured after 2 hrs by flow cytometric analysis relative to control. The format is cell-based. Also noted: scale not given: the % may be the effect or the level left.

In experiment [6] the test system is FL5.12. In words: Induction of vacuolation in mouse FL5.12 cells assessed as vacuolation score at 40 uM preincubated with PP2A inhibitor calyculin A for 60 mins followed by compound addition and measured after 2 hrs by fluorescence microscopic method. The format is functional.
Experiment [7] relates to FL5.12. Kind of experiment: Inhibition of protein phosphatase 2A in mouse FL5.12 cells assessed as induction of surface nutrient transporter loss by measuring downregulation of CD98 expression level at 40 uM preincubated with PP2A inhibitor calyculin A for 60 mins followed by compound addition and measured after 2 hrs by flow cytometric analysis relative to control. In kind it is cell-based. Set-up: scale not given: the % may be the effect or the level left.

Take `CCCCCCCCc1ccc([C@H]2CCN[C@@H]2COCCCCN2c3ccccc3Oc3ccccc32)cc1.Cl`: the Activity turned out to be 7 in the experiment on FL5.12 [1], 15% with FL5.12 [2], 15 in the experiment with FL5.12 [4] and 5% in the experiment with FL5.12 [5]. For the same compound, in the experiment filed under Mus musculus, the Ratio IC50 was in the range of 2 to 3. Further, in experiment [3], the IC50 was found to be 5.8 µM.
`OCCN1CCN(CCCN2c3ccccc3Sc3ccc(Cl)cc32)CC1` [PERPHENAZINE]: the Activity in the experiment with FL5.12 [1] is 1; in the experiment with FL5.12 [2], 58%; in the experiment on FL5.12 [4] it was 3; with FL5.12 [5], 19%. Besides, the IC50 in experiment [3] amounted to 4.8 µM.
On the same counts, the results for `CCCCCCCCc1ccc([C@H]2CCN[C@@H]2COCCCCc2cccnc2)cc1.Cl` are 12, 64%, 11, 40% and 2.1 µM.
On the same counts, the results for `CCCCCCCCc1ccc([C@H]2CCN[C@@H]2CO)cc1.Cl` are 46, 69%, 60, 32% and 1.8 µM.
The like results for `CCCCCCCCc1ccc([C@H]2CCN[C@@H]2COCCCC(O)c2cnc(OC)nc2OC)cc1.Cl` (some centres not stated) were, in that order, 8, 60%, 15, 10% and 2.7 µM.
As to `CCCCCCCCc1ccc([C@H]2CCN[C@@H]2COCCCCCN2c3ccccc3Sc3ccccc32)cc1.Cl`, the Activity was 42 in the experiment with FL5.12 [6], -8% in the experiment with FL5.12 [2], 18 in the experiment with FL5.12 [4] and 29% in the experiment with FL5.12 [7]. Further, the IC50 in experiment [3] was 7.5 µM.
In the case of `CCCCCCCCc1ccc([C@H]2CCN[C@@H]2COCCCN2c3ccccc3Oc3ccccc32)cc1.Cl`, the Activity with FL5.12 [1] is 2; in the experiment with FL5.12 [2] it was 27%; in the experiment with FL5.12 [4] it was 23; in the experiment with FL5.12 [5], 4%. Moreover, the Ratio IC50 in the experiment filed under Mus musculus was in the range of 2 to 3. In addition, in experiment [3], the IC50 is 4.6 µM.
As to `O=S(=O)(N[C@@H]1CCC[C@H](N2c3ccccc3Oc3ccccc32)[C@H]1O)c1ccc(OC(F)(F)F)cc1`, the Activity in the experiment on FL5.12 [6] was determined as 11; in the experiment on FL5.12 [2] it was 7%; in the experiment on FL5.12 [4] it was 0; with FL5.12 [7] it was 31%. Further, the IC50 in experiment [3] was 15.2 µM.
The like results for `CCCCCCCCc1ccc([C@H]2CCN[C@@H]2COCCCCCN2c3ccccc3Oc3ccccc32)cc1.Cl` were, in that order, 66, -3%, 16, 38% and 8.6 µM.
For `CCCCCCCCc1ccc([C@H]2CCN[C@@H]2COCCCC(O)c2cccnc2)cc1.Cl` (some centres not stated), the Activity in the experiment on FL5.12 [1] was found to be 8; in the experiment with FL5.12 [2], 51%; with FL5.12 [4], 17; with FL5.12 [5], 24%. In experiment [3], the IC50 came to 2.4 µM.
